Literature values in US9512158B2, “Enhanced immunogenicity of tumor associated antigens by addition of alphagal epitopes” (NewLink Genetics Corp., priority 2006, dated 2016).

Tests used:
MHC-I H2-K^b = molecular target: T1, MHC-I H2-K^b (Mus musculus, UniProt P01901); conditions: compared with peptide #1 TWHRYHLL; cited from earlier work
T1 sequence (P01901 22-369): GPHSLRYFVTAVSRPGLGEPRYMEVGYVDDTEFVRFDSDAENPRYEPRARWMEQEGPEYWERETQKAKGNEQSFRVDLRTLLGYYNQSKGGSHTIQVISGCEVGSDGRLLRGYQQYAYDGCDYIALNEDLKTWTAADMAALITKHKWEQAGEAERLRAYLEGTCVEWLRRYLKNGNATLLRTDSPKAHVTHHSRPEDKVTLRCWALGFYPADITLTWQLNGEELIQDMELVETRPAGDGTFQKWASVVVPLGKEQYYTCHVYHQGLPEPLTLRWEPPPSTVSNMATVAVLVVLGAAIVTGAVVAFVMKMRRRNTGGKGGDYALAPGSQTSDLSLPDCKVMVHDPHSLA
T1 sequence (P01887 21-119 partner): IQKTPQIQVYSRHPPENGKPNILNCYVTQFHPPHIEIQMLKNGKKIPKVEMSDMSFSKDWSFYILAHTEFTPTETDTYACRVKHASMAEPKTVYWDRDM

B16 melanoma = conditions: cited from earlier work
αGT knockout mice = conditions: cited from earlier work

Substance	binding affinity to MHC-I H2-K^b (MHC-I H2-K^b)	protective immunity against B16 melanoma (B16 melanoma; C57Bl/6 mice (H-2K^b), in the presence of adjuvant)	immunogenicity (B16 melanoma; in the absence of adjuvant)	T cell response to BSA (αGT knockout mice; mouse, in vivo)	production of anti-BSA IgG antibodies (αGT knockout mice; without adjuvant)
TAYRYHLL	better binding affinity	induces protective immunity	not immunogenic	–	–
BSA conjugated with αGal: BSA conjugated with αGal	–	–	–	increase	significant production
